# Results published in patent US8501770B2 (ArQule, Inc., priority 2009, dated 2013).
# Counter-ions that a name gives are not always drawn.
# Biological target: Full-length inactive AKT1 (Homo sapiens, UniProt P31749)
# Assay: Inactive Akt Alpha Screen Assay
# Format: biochemical
# Settings: values not marked with "*": AlphaScreen assay; read-out: Akt1 IC50, (AlphaScreen)
# Experimental: AKT1 activity was assayed using the GSK3-derived biotinylated peptide substrate, crosstide (biotin-[…]), and AlphaScreen™ (Amplified Luminescent Proximity Homogeneous Assay) technology. AKT1 activation was achieved by the addition of the activating kinases PDK1 and MAPKAPK2, lipid vesicles, and ATP. The extent of peptide phosphorylation was determined using a phospho-AKT substrate antibody and acceptor beads conjugated to Protein A and donor beads conjugated to streptavidin that bind to the biotin on the peptide. Excitation of the donor beads converted ambient oxygen to excited singlet oxygen which, when in close proximity to acceptor beads, reacted with acceptor beads resulting in signal amplification.
# Assay plates were incubated for 90 minutes at room temperature in the dark, and the plates were read on a Perkin Elmer Envision Multilabel plate reader (excitation wavelength: […], emission wavelength: 570 nm).
# Full-length inactive AKT1, sequence (P31749 whole entry): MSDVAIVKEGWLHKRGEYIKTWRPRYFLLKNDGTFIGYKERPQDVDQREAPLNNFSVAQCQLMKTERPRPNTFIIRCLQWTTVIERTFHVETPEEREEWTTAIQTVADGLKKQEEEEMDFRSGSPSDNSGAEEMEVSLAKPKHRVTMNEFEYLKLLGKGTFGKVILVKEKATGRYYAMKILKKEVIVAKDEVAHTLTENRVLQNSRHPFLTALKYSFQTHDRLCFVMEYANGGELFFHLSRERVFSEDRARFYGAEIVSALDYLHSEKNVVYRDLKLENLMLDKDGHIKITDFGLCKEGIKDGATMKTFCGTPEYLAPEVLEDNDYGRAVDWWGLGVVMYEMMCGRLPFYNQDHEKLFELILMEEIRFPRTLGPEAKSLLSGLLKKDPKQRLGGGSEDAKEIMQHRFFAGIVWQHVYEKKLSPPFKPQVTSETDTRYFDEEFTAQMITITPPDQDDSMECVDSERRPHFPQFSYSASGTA
row,Compound,IC50 [nM]
1,CC(C)(C)OC(=O)NCc1ccc(-n2c(-c3cccnc3N)nc3cccnc32)cc1 [Example 9],2470
2,Nc1ncccc1-c1nc2cccnc2n1-c1ccc(CN2CCOCC2)cc1 [Example 15],1790
3,Nc1ncccc1-c1nc2cccnc2n1-c1ccc(CNC(=O)c2ccccn2)cc1 [Example 19],344
4,Nc1ncccc1-c1nc2cccnc2n1-c1ccc(CNCc2ccccc2)cc1 [Example 37],205
5,Nc1ncccc1-c1nc2cccnc2n1-c1ccc(S(=O)(=O)N2CCCCC2)cc1 [Example 38],4310
6,Nc1ncccc1-c1nc2cccnc2n1-c1ccc(CNC(=O)c2ccc(Br)cc2)cc1 [Example 40],89
7,Nc1ncccc1-c1nc2cccnc2n1-c1ccc(CNC(=O)CC(c2ccccc2)c2ccccc2)cc1 [Example 42],2010
8,Nc1ncccc1-c1nc2cccnc2n1-c1ccc(CNC(=O)c2ccc(OC(F)(F)F)cc2)cc1 [Example 47],378
9,Nc1ncccc1-c1nc2cccnc2n1-c1ccc(CNC(=O)c2cccs2)cc1 [Example 48],196
10,COc1ccccc1C(=O)NCc1ccc(-n2c(-c3cccnc3N)nc3cccnc32)cc1 [Example 50],2610
11,Cc1cccc(C(=O)NCc2ccc(-n3c(-c4cccnc4N)nc4cccnc43)cc2)c1 [Example 53],122
12,COc1ccc(C(=O)NCc2ccc(-n3c(-c4cccnc4N)nc4cccnc43)cc2)cc1 [Example 54],711
13,Nc1ncccc1-c1nc2cccnc2n1-c1ccc(CNC(=O)c2ccc3c(c2)CCO3)cc1 [Example 64],1130
14,Cc1ccccc1C(=O)NCc1ccc(-n2c(-c3cccnc3N)nc3cccnc32)cc1 [Example 70],189
15,Nc1ncccc1-c1nc2cccnc2n1-c1ccc(CNC(=O)C2Cc3ccccc3C2)cc1 [Example 75],179
16,Nc1ncccc1-c1nc2cccnc2n1-c1ccc(CNC(=O)c2ccccc2-n2cccc2)cc1 [Example 78],307
17,Nc1ncccc1-c1nc2cccnc2n1-c1ccc(CNC(=O)Nc2ccccc2Cl)cc1 [Example 90],394
18,Nc1ncccc1-c1nc2cccnc2n1-c1ccc(CC(=O)N2CCC(n3c(=O)[nH]c4ccccc43)CC2)cc1 [Example 107],1430
19,"Cn1ccc(S(=O)(=O)NCc2ccc(-n3c(-c4cccnc4N)nc4cccnc43)cc2)n1 [Example 109, hydrochloride]",860
20,Cn1c(NC(=O)Cc2ccc(-n3c(-c4cccnc4N)nc4cccnc43)cc2)nc2ccccc21 [Example 114],579
21,"Cc1ccc2cc(NC(=O)Cc3ccc(-n4c(-c5cccnc5N)nc5cccnc54)cc3)ccc2n1 [Example 123, hydrochloride]",128
22,Cc1ccc(NC(=O)Cc2ccc(-n3c(-c4cccnc4N)nc4cccnc43)cc2)cc1 [Example 127],108
23,COc1ccc(NC(=O)Cc2ccc(-n3c(-c4cccnc4N)nc4cccnc43)cc2)cc1F [Example 128],216
24,"Nc1ncccc1-c1nc2cc(F)cnc2n1-c1ccc(CNC(=O)c2ccccc2)cc1 [Example 133, N-(4-(2-(2-aminopyridin-3-yl)-6-fluoro-3H-imidazo[4,5-b]pyridin-3-yl)benzyl)benzamide]",106
25,"Nc1ncccc1-c1nc2cc(-c3ccc4cc[nH]c4c3)cnc2n1-c1ccc(CNC(=O)c2ccccc2)cc1 [Example 139, N-{4-[2-(2-aminopyridin-3-yl)-6-(1H-indol-6-yl)-3H-imidazo[4,5-b]pyridin-3-yl]benzyl}benzamide]",360
26,"Cc1cccc(-c2cnc3c(c2)nc(-c2cccnc2N)n3-c2ccc(CNC(=O)c3ccccc3)cc2)c1 [Example 140, N-{4-[2-(2-aminopyridin-3-yl)-6-(3-methylphenyl)-3H-imidazo[4,5-b]pyridin-3-yl]benzyl}benzamide]",1100
27,"Nc1ncccc1-c1nc2cc(-c3cncnc3)cnc2n1-c1ccc(CNC(=O)c2ccccc2)cc1 [Example 142, N-{4-[2-(2-aminopyridin-3-yl)-6-pyrimidin-5-yl-3H-imidazo[4,5-b]pyridin-3-yl]benzyl}benzamide]",190
28,"Nc1ncccc1-c1nc2cc(-c3ccc(Br)cc3)cnc2n1-c1ccc(CNC(=O)c2ccccc2)cc1 [Example 143, N-{4-[2-(2-aminopyridin-3-yl)-6-(4-bromophenyl)-3H-imidazo[4,5-b]pyridin-3-yl]benzyl}benzamide]",170
29,"Nc1ncccc1-c1nc2cc(-c3ccncc3)cnc2n1-c1ccc(CNC(=O)c2ccccc2)cc1 [Example 145, N-{4-[2-(2-aminopyridin-3-yl)-6-pyridin-4-yl-3H-imidazo[4,5-b]pyridin-3-yl]benzyl}benzamide]",160
30,"Nc1ncccc1-c1nc2cc(Br)cnc2n1-c1ccc(CNS(=O)(=O)c2ccccc2Cl)cc1 [Example 147, N-{4-[2-(2-aminopyridin-3-yl)-6-bromo-3H-imidazo[4,5-b]pyridin-3-yl]benzyl}-2-chlorobenzenesulfonamide]",440

# Continued, values first:
row,IC50 [nM],Compound
1,20600,COc1ccc2nc(-c3cccnc3N)n(-c3ccc(C(C)(C)C)cc3)c2n1 [Example 8]
2,211,Nc1ncccc1-c1nc2cccnc2n1-c1ccc(CNC(=O)c2cccnc2)cc1 [Example 12]
3,507,CNS(=O)(=O)Cc1ccc(-n2c(-c3cccnc3N)nc3cccnc32)cc1 [Example 13]
4,3900,Nc1ncccc1-c1nc2cccnc2n1-c1ccc(C2CCCCC2)cc1 [Example 17]
5,354,Nc1ncccc1-c1nc2cccnc2n1-c1ccc(CNC(=O)c2nccc3ccccc23)cc1 [Example 20]
6,1410,CC(=O)Nc1ccccc1C(=O)NCc1ccc(-n2c(-c3cccnc3N)nc3cccnc32)cc1 [Example 43]
7,84,Nc1ncccc1-c1nc2cccnc2n1-c1ccc(CNC(=O)c2cccc(F)c2)cc1 [Example 49]
8,2770,"CC(C)(C)C(=O)NCc1ccc(-n2c(-c3cccnc3N)nc3cccnc32)cc1 [Example 52, N-{4-[2-(2-aminopyridin-3-yl)-3H-imidazo[4,5-b]pyridin-3-yl]benzyl}-2,2-dimethylpropanamide]"
9,1520,CNc1ccccc1C(=O)NCc1ccc(-n2c(-c3cccnc3N)nc3cccnc32)cc1 [Example 57]
10,790,Nc1ncccc1-c1nc2cccnc2n1-c1ccc(CNC(=O)c2ccc(C(F)(F)F)cc2)cc1 [Example 63]
11,605,CC(=O)Nc1ccc(C(=O)NCc2ccc(-n3c(-c4cccnc4N)nc4cccnc43)cc2)cc1 [Example 71]
12,2610,Nc1ncccc1-c1nc2cccnc2n1-c1ccc(CNC(=O)CC2CCCC2)cc1 [Example 73]
13,417,COc1cccc(C(=O)NCc2ccc(-n3c(-c4cccnc4N)nc4cccnc43)cc2)c1 [Example 77]
14,1110,CC1=NN(c2ccc(C(=O)NCc3ccc(-n4c(-c5cccnc5N)nc5cccnc54)cc3)cc2)C(=O)C1 [Example 79]
15,1370,Nc1ncccc1-c1nc2cccnc2n1-c1ccc(CNC(=O)c2ccc(F)cc2)cc1 [Example 81]
16,142,Nc1ncccc1-c1nc2cccnc2n1-c1ccc(CNS(=O)(=O)c2cccnc2)cc1 [Example 94]
17,158,Nc1ncccc1-c1nc2cccnc2n1-c1ccc(CNS(=O)(=O)c2ccsc2)cc1 [Example 100]
18,2530,"Nc1ccc(-n2c(-c3cccnc3N)nc3cccnc32)cc1 [Example 106, hydrochloride]"
19,610,CCOC(=O)Cc1ccc(-n2c(-c3cccnc3N)nc3cccnc32)cc1 [Example 113]
20,595,COc1ccc(NC(=O)Cc2ccc(-n3c(-c4cccnc4N)nc4cccnc43)cc2)c(OC)c1 [Example 116]
21,233,"COc1cccc(NC(=O)Cc2ccc(-n3c(-c4cccnc4N)nc4cccnc43)cc2)c1 [Example 119, hydrochloride]"
22,160,"Cc1ccc2nc(NC(=O)Cc3ccc(-n4c(-c5cccnc5N)nc5cccnc54)cc3)sc2c1 [Example 121, hydrochloride]"
23,1600,"Nc1ccccc1-c1cnc2c(c1)nc(-c1cccnc1N)n2-c1ccc(CNC(=O)c2ccccc2)cc1 [Example 134, N-{4-[6-(2-aminophenyl)-2-(2-aminopyridin-3-yl)-3H-imidazo[4,5-b]pyridin-3-yl]benzyl}benzamide]"
24,1800,"CCOc1cccc(-c2cnc3c(c2)nc(-c2cccnc2N)n3-c2ccc(CNC(=O)c3ccccc3)cc2)c1 [Example 135, N-{4-[2-(2-aminopyridin-3-yl)-6-(3-ethoxyphenyl)-3H-imidazo[4,5-b]pyridin-3-yl]benzyl}benzamide]"
25,50,"Nc1ncccc1-c1nc2cc(-c3ccsc3)cnc2n1-c1ccc(CNC(=O)c2ccccc2)cc1 [Example 137, N-{4-[2-(2-aminopyridin-3-yl)-6-thiophen-3-yl-3H-imidazo[4,5-b]pyridin-3-yl]benzyl}benzamide]"
26,120,"CS(=O)(=O)c1ccc(-c2cnc3c(c2)nc(-c2cccnc2N)n3-c2ccc(CNC(=O)c3ccccc3)cc2)cc1 [Example 138, N-(4-{2-(2-aminopyridin-3-yl)-6-[4-(methylsulfonyl)phenyl]-3H-imidazo[4,5-b]pyridin-3-yl}benzyl)benzamide]"
27,420,"Nc1ncccc1-c1nc2cc(Br)cnc2n1-c1ccc(CNS(=O)(=O)c2ccccc2)cc1 [Example 146, N-{4-[2-(2-aminopyridin-3-yl)-6-bromo-3H-imidazo[4,5-b]pyridin-3-yl]benzyl}benzenesulfonamide]"
28,240,"COc1ccc(S(=O)(=O)NCc2ccc(-n3c(-c4cccnc4N)nc4cc(Br)cnc43)cc2)cc1OC [Example 148, N-{4-[2-(2-aminopyridin-3-yl)-6-bromo-3H-imidazo[4,5-b]pyridin-3-yl]benzyl}-3,4-dimethoxybenzenesulfonamide]"
